Assays:
[1] = AUC in Swiss albino mouse plasma at 0.2 mmol/Kg, po measured after 24 hrs by HPLC analysis; assay type: ADME, organism-based; design: dose 0.2 mmol/Kg, time 24 hrs, route po; conditions: in vivo
[2] = Cytotoxicity against human BJ cells assessed as cell growth inhibition; assay type: toxicity, cell-based
INS1 [3] = test: Induction of apoptosis in rat INS1 cells assessed as necrotic cells at 1 uM incubated for 36 hrs by Annexin V-FITC/ propidium iodide staining based flow cytometry analysis (reference value: 1.15%); assay type: functional
[4] = Cytotoxicity against human THLE-2 cells assessed as cell growth inhibition at 10 uM relative to control; assay type: toxicity, cell-based; conditions: read-out: GI
[5] = Acute toxicity in Swiss albino mouse assessed as effect on behavioural change up to 2000 mg/kg, po administered for 14 days; assay type: organism-based; conditions: in vivo, 336 h, time 14 day
[6] = Acute toxicity in Swiss albino mouse assessed as effect on mortality up to 2000 mg/kg, po administered for 14 days; assay type: organism-based; conditions: in vivo, 336 h, time 14 day
[7] = Toxicity in high fat diet-STZ-induced diabetic Swiss albino mouse model assessed as changes in body weight at 0.2 mmol/Kg/day, po administered for 14 days (reference value: 26.6 to 27.8 g); assay type: organism-based; conditions: in vivo, 336 h, time 14 day
[8] = Cytotoxicity against human BJ cells assessed as cell growth inhibition at 10 uM relative to control; assay type: toxicity, cell-based; conditions: read-out: GI
Dipeptidyl peptidase 4 = Dipeptidyl peptidase 4 (Homo sapiens, UniProt P27487); test: Inhibition of DPP-4 (unknown origin) incubated for 30 mins in presence of substrate by fluorescence based analysis relative to sitagliptin
[9] = Cytotoxicity against human MCF-10F cells assessed as cell growth inhibition at 10 uM relative to control; assay type: toxicity, cell-based; conditions: read-out: GI
Mus musculus [10] = test: Antidiabetic activity against high fat diet-STZ-induced diabetic Swiss albino mouse model assessed as insulin resistance by measuring serum IL6 level at 0.2 mmol/Kg/day, po administered for 14 days by ELISA method (reference value: 39.30+/-4.14 pg/ml); assay type: functional; conditions: time 14 day
[11] = Cytotoxicity against HEK293 cells assessed as cell growth inhibition at 10 uM relative to control; assay type: toxicity, cell-based; conditions: human, read-out: GI
[12] = Acute toxicity in Swiss albino mouse assessed as effect on motor alterations up to 2000 mg/kg, po administered for 14 days; assay type: organism-based; conditions: in vivo, 336 h, time 14 day
[13] = Cytotoxicity against human HCN-1A cells assessed as cell growth inhibition; assay type: toxicity, cell-based
[14] = Cmax in Swiss albino mouse plasma at 0.2 mmol/Kg, po measured after 24 hrs by HPLC analysis; assay type: ADME, organism-based; design: time 24 hrs, dose 0.2 mmol/Kg, route po
[15] = Cytotoxicity against human HCN-1A cells assessed as cell growth inhibition at 10 uM relative to control; assay type: toxicity, cell-based; conditions: read-out: GI
[16] = system: voltage dependent L/T-type calcium channel; test: Inhibition of voltage dependent L/T-type calcium channel in human SH-SY5Y cells; conditions: SH-SY5Y cells
Alpha glucosidase = Alpha glucosidase (Homo sapiens, UniProt O43451+P10253+P14410+Q2M2H8); test: Inhibition of alpha glucosidase (unknown origin) measured after 60 mins; assay type: protein assay
[17] = Cytotoxicity against human MRC5 cells assessed as cell growth inhibition; assay type: toxicity, cell-based
Mus musculus [18] = test: Antidiabetic activity against high fat diet-STZ-induced diabetic Swiss albino mouse model assessed as serum insulin level at 0.2 mmol/Kg/day, po administered for 14 days by ELISA method (reference value: 16.37 +/- 0.62 uU/ml); assay type: functional; conditions: time 14 day
INS1 [19] = test: Induction of apoptosis in rat INS1 cells assessed as total apoptotic cells at 1 uM incubated for 36 hrs by Annexin V-FITC/ propidium iodide staining based flow cytometry analysis (reference value: 0.53%); assay type: functional
[20] = molecular target: Alpha amylase (Homo sapiens) (UniProt P0DUB6); test: Inhibition of alpha amylase (unknown origin) measured after 20 to 25 mins relative to quercetin; conditions: time 20-25 min
Mus musculus [21] = test: Antidiabetic activity against high fat diet-STZ-induced diabetic Swiss albino mouse model assessed as reduction in blood glucose level at 0.2 mmol/Kg/day, po administered for 14 days; assay type: functional; conditions: time 14 day

Sequence of Alpha amylase (Homo sapiens) (P0DUB6 whole entry, looked up): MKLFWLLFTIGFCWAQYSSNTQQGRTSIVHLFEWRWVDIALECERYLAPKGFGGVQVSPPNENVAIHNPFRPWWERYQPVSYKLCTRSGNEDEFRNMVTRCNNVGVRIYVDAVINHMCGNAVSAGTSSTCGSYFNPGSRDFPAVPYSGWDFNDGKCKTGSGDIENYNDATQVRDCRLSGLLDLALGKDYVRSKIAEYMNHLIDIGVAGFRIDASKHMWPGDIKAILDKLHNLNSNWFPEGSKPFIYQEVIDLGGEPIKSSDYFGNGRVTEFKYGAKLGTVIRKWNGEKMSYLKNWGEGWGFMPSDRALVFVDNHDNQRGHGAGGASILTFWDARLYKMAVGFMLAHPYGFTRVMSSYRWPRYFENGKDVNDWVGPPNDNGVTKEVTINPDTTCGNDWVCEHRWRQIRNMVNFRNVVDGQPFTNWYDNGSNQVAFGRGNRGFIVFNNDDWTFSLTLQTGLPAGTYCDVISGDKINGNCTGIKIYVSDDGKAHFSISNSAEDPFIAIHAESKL
Sequence of Dipeptidyl peptidase 4 (P27487 whole entry, looked up): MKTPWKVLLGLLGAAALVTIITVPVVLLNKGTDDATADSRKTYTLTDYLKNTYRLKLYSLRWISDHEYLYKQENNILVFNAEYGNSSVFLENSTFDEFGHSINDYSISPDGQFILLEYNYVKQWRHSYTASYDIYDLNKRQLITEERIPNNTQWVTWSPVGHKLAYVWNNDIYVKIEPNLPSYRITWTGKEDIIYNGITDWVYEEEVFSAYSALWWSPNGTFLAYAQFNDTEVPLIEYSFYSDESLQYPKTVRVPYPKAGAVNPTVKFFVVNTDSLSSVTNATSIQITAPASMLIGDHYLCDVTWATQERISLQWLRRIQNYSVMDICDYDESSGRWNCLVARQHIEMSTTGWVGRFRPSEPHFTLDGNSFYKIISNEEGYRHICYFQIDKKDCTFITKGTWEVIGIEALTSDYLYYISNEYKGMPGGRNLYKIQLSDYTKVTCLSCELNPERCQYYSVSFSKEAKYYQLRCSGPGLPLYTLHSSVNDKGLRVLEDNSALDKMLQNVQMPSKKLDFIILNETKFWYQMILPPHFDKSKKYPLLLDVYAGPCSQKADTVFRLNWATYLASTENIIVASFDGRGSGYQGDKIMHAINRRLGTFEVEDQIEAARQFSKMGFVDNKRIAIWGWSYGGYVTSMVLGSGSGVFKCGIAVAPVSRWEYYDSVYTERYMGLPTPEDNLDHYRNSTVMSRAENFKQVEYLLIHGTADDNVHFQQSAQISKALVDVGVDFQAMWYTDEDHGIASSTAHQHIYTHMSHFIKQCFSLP

SMILES: CCOC(=O)C1=C(C)NC(C)=C(C(=O)OCC)C1c1cccc2c1OCO2
- AUC [1]: 36.7 ng·h/mL
- GI50 [2]: 15.2 µM
- Activity (INS1 [3]): 1.46%
- inhibition at 10 µM [4]: 18.3%
- Activity [5]: Non-Toxic
- Activity [6]: Non-Toxic
- Activity [7]: 26.9 g
- inhibition at 10 µM [8]: 34.5%
- inhibition (Dipeptidyl peptidase 4): < 1%
- inhibition at 10 µM [9]: 28.7%
- Activity (Mus musculus [10]): 96.07 pg/mL
- inhibition at 10 µM [11]: 41.3%
- Activity [12]: Non-Toxic
- GI50 [13]: 28.7 µM
- Cmax [14]: 10.1 µM
- inhibition at 10 µM [15]: 33.1%
- IC50 [16]: 16.5 µM
- IC50 (Alpha glucosidase): 4.48 µM
- GI50 [17]: 61.8 µM
- Activity (Mus musculus [18]): 16.31 uU/ml
- Activity (INS1 [19]): 0.42%
- inhibition [20]: 47%
- Activity (Mus musculus [21]): 80.6 mg/dL

Source: ChEMBL document CHEMBL5316297, “Mechanistic Insight of Synthesized 1,4-Dihydropyridines as an Antidiabetic Sword against Reactive Oxygen Species” (J Med Chem, 2023)
